Measurements taken from patent US20130059840A1, “SULFONAMIDO PYRROLIDINE COMPOUNDS WHICH INHIBIT BETA-SECRETASE ACTIVITY AND METHODS OF USE THEREOF” (CoMentis, Inc., priority 2009, published 2013).

Columns and labels:
[1] = molecular target: T1, CYP3A4 (Homo sapiens, UniProt P08684); assay: Determination of CYP3A4 inhibition (midazolam metabolism); type: in vitro ADME; conditions: human liver microsomes, midazolam substrate
T1 construct: with human liver microsomes (HLM) at a final protein concentration of 0.1 mg/mL protein; from tissue; host or cells: human liver microsomes
Method: To evaluate the drug-drug interaction potential for compounds, the potency to inhibit the major metabolic cytochrome CYP450 isoform 3A4 was assessed. The inhibition constant Ki was determined for inhibition of the metabolism of midazolam, a CYP3A4 substrate.
CYP3A4 Ki assays were performed following a recently published protocol with slight modifications (Di, L., Kerns, E. H., Li, S. Q., and Carter, G. T. (2007) Comparison of cytochrome P450 inhibition assays for drug discovery using human liver microsomes with LC-MS, rhCYP450 isozymes with fluorescence, and double cocktail with LC-MS. International Journal of Pharmaceutics 335: 1-11). The P450 inhibition assay was performed in 96-well plates at 37.2° C. in a shaking incubator. […]
After incubation for the specified time in a humidified shaking incubator, 20 μL of the reaction mixture was removed and the reactions were terminated by adding […] of cold acetonitrile. […] Formation of 1′-hydroxymidazolam was measured by monitoring a specific SRM (342>203) transition for the CYP3A4 metabolite.
Data were expressed as the relative quantity of midazolam metabolite relative to control incubations. Initial velocities were obtained by multiplying the relative quantity by the initial substrate concentration and dividing by the incubation duration. […]

[2] = molecular target: T2, memapsin 2 (Cricetulus griseus, UniProt G3IAK4); assay: Cellular Aβ IC50 determination (Aβ40 sandwich ELISA); type: cell-based; conditions: Chinese hamster ovary cells over-expressing human APP695 (London and Swedish mutations), Aβ40, 24 h; read-out: M2 IC50
T2 construct: endogenous in cells; host or cells: Chinese hamster ovary cells over-expressing human APP695 (London + Swedish)
Method: The potency of compounds against memapsin 2 activity was determined in a cellular assay of Aβ production. […] Chinese hamster ovary cells that over-express human APP695 with the London and Swedish mutations were seeded in multi-well plates at 10% confluency. Compounds are dissolved in DMSO to concentrations near 1 mM, and diluted into culture media to a final concentration near 4 μM (final 0.4% DMSO). Compounds were diluted serially and applied to cells in multi-well plates 48 h after seeding. Incubation was continued in 5% CO2 at 37° C. for 24 h. Aliquots were removed and assayed for Aβ40 content using a sandwich ELISA (BioSource International). Amount of Aβ40 over the range of concentration of compounds, relative to control incubations, were fit to a 4-parameter IC50 model.

[3] = Hepatic intrinsic clearance in liver microsomes; type: in vitro ADME; conditions: pH 7.4; human liver microsomes, LC/MS/MS; read-out: HLM CL
Method: To 500 μl of 200 mM Na^+ K^+ phosphate buffer (pH 7.4), 100 μl of 1 mM EDTA solution was added followed by 100 μl of 2 mg protein/ml human liver microsomes. A 10 μl aliquot of test compound (20 mM stock in 50% acetonitrile) was diluted further with 40 μl of H2O (total assay volume 750 μl. Assay mixture is incubated for 5 minutes at 37° C. The assay was initiated by addition of 250 μl of 4 mM NADPH solution. Incubation was continued at 37° C. Separate reaction mixtures were prepared for 0, 5, 10, 20, and 30 min durations. Individual reactions were halted by addition of 150 μl of 100% acetonitrile. Internal standard (10 μl of 100 ng/ml diazepam solution) was added. Concentration of the test compound in each separate reaction was measured using LC/MS/MS and a standard curve for the test compound according to standard procedures.
The hepatic intrinsic clearance in liver microsome was determined by the following procedure described by Davies and Morris (Davies, B. and Morris, T. (19930) Physiological parameters in laboratory animals and humans. Pharm Res. 10:1093-1095) detailing the relationship of in vitro clearance to physiological parameters in animals and human subjects.
The amount of compound remaining at each time point was expressed relative to the amount present in the initial (0 min) incubation. The relationship of relative amount vs. time was used to determine the half life of the compound in the microsome assay. The concentration independent rate constant, k1, was determined from rectangular hyperbolic fit:
% remaining=100*(e^−k^1^T)
where T is time (in minutes), from the relationship of relative amount vs. time. Alternatively, k1 was determined from a transform of the equation, where
Conversion to in vivo clearance was obtained from the relation (Davies and Morris, 1993):
where v=velocity of metabolism, [S] is the concentration of the compound, and volumes are expressed in mL.

[4] = molecular target: Cathepsin D (UniProt P07339); assay: Inhibition of cathepsin D activity (MALDI-TOF, substrate peptide); type: biochemical; conditions: substrate peptide NH3-ELDLAVEFWHDR-CO2, pH 4.1, 37 degrees C.; read-out: CD Ki
[5] = molecular target: memapsin 2 (Homo sapiens, UniProt P56817); assay: Inhibition of memapsin 2 beta-secretase activity (fluorogenic substrate FS-2); type: biochemical; conditions: pH 4, 37° C., read-out: M2 Ki
Method: Potency of compounds were determined by measurement of their inhibition of memapsin 2 activity toward a fluorescent substrate. Kinetic inhibition experiments were performed using the procedure as described in Ermolieff, et al. (Biochemistry 39:12450-12456 (2000), the teachings of which are incorporated hereby in their entirety). Briefly, assays were performed at pH 4, 37° C., by pre-incubation of memapsin 2 enzyme with compound for 20 minutes. Activity measurements were initiated by addition of a fluorogenic substrate FS-2 (Bachem Americas, Torrance, Calif.) MCA-SEVNLDAEFR-DNP (SEQ ID NO.: 2). The substrate was derived from 10 amino acids of the human amyloid precursor protein (APP), with the Swedish variant amino acids at the beta-secretase cleavage site. The terminal amino acid was modified from arginine to lysine to facilitate derivatization with a functional group for detection by autofluorescence. The amino acid sequence of the “core” peptide of the substrate is SEVNLDAEFK (SEQ ID NO.: 3). The amino terminus was derivatized with (7-methoxycoumarin-4-yl)acetyl (MCA), and the epsilon amine of the lysine side chain of the terminal residue (K in sequence SEVNLDAEFK (SEQ ID NO.: 3)) was derivatized with 2,4-dinitrophenyl (DNP).

T2 sequence (G3IAK4 22-501): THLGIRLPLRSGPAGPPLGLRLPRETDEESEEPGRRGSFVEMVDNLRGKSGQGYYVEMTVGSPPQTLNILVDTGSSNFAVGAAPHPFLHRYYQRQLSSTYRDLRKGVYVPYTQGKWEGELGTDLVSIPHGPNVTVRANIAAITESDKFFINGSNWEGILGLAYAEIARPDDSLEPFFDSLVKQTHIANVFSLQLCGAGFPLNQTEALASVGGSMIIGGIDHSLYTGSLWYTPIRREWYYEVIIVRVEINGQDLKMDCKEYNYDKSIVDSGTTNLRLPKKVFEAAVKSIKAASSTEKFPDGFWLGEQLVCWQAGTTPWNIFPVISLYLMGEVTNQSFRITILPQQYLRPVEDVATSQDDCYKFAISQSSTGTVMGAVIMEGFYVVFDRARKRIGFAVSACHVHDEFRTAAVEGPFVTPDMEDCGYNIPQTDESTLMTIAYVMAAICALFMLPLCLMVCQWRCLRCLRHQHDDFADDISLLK
memapsin 2 (Homo sapiens, UniProt P56817), sequence (P56817 46-501): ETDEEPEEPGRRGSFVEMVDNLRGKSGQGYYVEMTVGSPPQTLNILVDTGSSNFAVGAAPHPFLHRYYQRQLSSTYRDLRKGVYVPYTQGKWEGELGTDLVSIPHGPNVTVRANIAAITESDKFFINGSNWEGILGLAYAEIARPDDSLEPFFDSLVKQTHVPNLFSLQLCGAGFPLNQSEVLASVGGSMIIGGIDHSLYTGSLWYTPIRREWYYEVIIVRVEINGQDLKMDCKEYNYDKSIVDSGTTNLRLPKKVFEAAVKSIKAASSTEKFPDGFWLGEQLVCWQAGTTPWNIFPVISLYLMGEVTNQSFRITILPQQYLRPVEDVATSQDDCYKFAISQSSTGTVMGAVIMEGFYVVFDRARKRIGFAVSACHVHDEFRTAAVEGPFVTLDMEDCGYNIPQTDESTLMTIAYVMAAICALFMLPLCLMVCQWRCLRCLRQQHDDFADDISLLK
T1 sequence (P08684 whole entry): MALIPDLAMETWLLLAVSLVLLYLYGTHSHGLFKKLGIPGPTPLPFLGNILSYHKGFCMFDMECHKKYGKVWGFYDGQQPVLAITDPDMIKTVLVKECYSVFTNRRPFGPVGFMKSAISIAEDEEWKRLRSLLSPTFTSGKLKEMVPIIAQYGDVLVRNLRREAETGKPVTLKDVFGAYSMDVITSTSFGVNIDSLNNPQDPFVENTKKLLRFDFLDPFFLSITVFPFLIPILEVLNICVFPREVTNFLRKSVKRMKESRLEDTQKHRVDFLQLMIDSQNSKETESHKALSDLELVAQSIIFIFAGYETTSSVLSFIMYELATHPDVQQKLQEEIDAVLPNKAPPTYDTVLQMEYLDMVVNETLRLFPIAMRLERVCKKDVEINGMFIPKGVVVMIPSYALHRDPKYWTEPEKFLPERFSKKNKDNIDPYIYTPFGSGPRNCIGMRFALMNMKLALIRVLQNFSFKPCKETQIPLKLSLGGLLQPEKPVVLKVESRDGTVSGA

Row | SMILES | Ki [1] [nM] | IC50 [2] [nM] | CLint scaled at 200 μM [3] [mL/min/kg] | Ki [4] [nM] | Ki [5] [nM]
1 | Cc1csc([C@H]2CCCN2C(=O)c2cc(C(=O)N[C@@H](Cc3cccc(F)c3)[C@H](O)[C@H]3CCCN3)cc(N3CCCS3(=O)=O)c2)n1 [1-91, N-((1R,2S)-1-hydroxy-3-(5-fluorophenyl)-1-((R)-pyrrolidin-2-yl)propan-2-yl)-3-((R)-2-(4-methylthiazol-2-yl)pyrrolidine-1-carbonyl)-5-([1,2]thiazolidyl-S,S-dioxide)benzamide] | – | 500 to 1000 | < 400 | > 500 | < 250
2 | Cc1csc([C@H]2CCCN2C(=O)c2cc(C(=O)N[C@@H](Cc3cc(F)cc(F)c3)[C@H](O)[C@H]3CCCN3)cc(N3CCCS3(=O)=O)c2)n1 [1-90, N-((1R,2S)-1-hydroxy-3-(3,5-difluorophenyl)-1-((R)-pyrrolidin-2-yl)propan-2-yl)-3-((R)-2-(4-methylthiazol-2-yl)pyrrolidine-1-carbonyl)-5-([1,2]thiazolidyl-S,S-dioxide)benzamide] | – | < 500 | < 400 | > 500 | < 250
3 | Cc1csc([C@H]2CCCN2C(=O)c2cc(C(=O)N[C@@H](Cc3ccccc3)[C@H](O)[C@H]3CCCN3)cc(N3CCCS3(=O)=O)c2)n1 [1-89, N-((1R,2S)-1-hydroxy-3-phenyl-1-((R)-pyrrolidin-2-yl)propan-2-yl)-3-((R)-2-(4-methylthiazol-2-yl)pyrrolidine-1-carbonyl)-5-([1,2]thiazolidyl-S,S-dioxide)benzamide] | – | < 500 | < 400 | > 500 | < 250

More lines, now with the values ahead:

Row | Ki [1] [nM] | IC50 [2] [nM] | CLint scaled at 200 μM [3] [mL/min/kg] | Ki [4] [nM] | Ki [5] [nM] | SMILES
4 | > 10000 | < 500 | < 400 | – | – | Cc1csc([C@H]2CCCN2C(=O)c2cc(C(=O)N[C@@H](Cc3ccccc3)[C@H](O)[C@H]3CCCN3)cc(N3CCCCS3(=O)=O)c2)n1 [1-78, N-((1R,2S)-1-hydroxy-3-phenyl-1-((R)-pyrrolidin-2-yl)propan-2-yl)-3-((R)-2-(4-methylthiazol-2-yl)pyrrolidine-1-carbonyl)-5-(thiazinanyl-S,S-dioxide)benzamide]
5 | > 10000 | < 500 | < 400 | > 500 | < 250 | Cc1csc([C@H]2CCCN2C(=O)c2cc(C(=O)N[C@@H](Cc3cc(F)cc(F)c3)[C@H](O)[C@H]3CCCN3)cc(N3CCCCS3(=O)=O)c2)n1 [1-87, N-((1R,2S)-1-hydroxy-3-(3,5-difluorophenyl)-1-((R)-pyrrolidin-2-yl)propan-2-yl)-3-((R)-2-(4-methylthiazol-2-yl)pyrrolidine-1-carbonyl)-5-(thiazinanyl-S,S-dioxide)benzamide]
